What all share (format): in vivo
Assay [1] concerns Colo 205 human colon cancer model. Kind of assay: Colo 205 human colon cancer subcutaneous xenograft tumor model. The procedure:
Experimental animals were 68 (48 plus 20 spare mice) BALB/c female nude mice, 7-8 weeks old (the age of mice at the time of tumor cell inoculation) and weighing 15.7-20.7 g, which were purchased from Beijing VitalRiver Experimental Animal Technology Co., Ltd. Breeding environment was SPF grade. The experimental animals were all kept in an independent ventilated box with constant temperature and humidity. The temperature of the breeding room was 20-26° C., the humidity was 40-70%. The breeding room was ventilated 10-20 times per hour. The alternating time of day and night was 12 h/12 h. The mice were continuously supplied with cobalt 60 radiation sterilized mouse complete pellet feed, and had free access to the feed. The mice drank tap water (available after sterilization with high-pressure steam), which was continuously supplied using a water-drinking bottle, and had free access to water. The mouse box was a polysulfone mouse box, which was used after sterilization under high pressure, with a size of 325 mm×210 mm×180 mm.
Colo 205 cells were cultured in RPMI1640 medium containing 10% fetal bovine serum. Colo 205 cells in the exponential growth phase were collected, resuspended in PBS to an appropriate concentration and mixed with Matrigel at a ratio of 1:1. The resulting mixture was used for subcutaneous inoculation of tumor in mice. 5×10^6 Colo 205 cells were subcutaneously inoculated on the right side of female mice. The day of inoculation was defined as Day 0. When the average tumor volume reached 110.26 mm^3, the mice were randomly divided into groups according to tumor size.
Relative tumor proliferation rate, T/C %, refers to the percentage value of the relative tumor volume or tumor weight of the treatment group and the control group at a certain time point, which was calculated as follows:
T/C %=TRTV/CRTV×100% (TRTV: the average RTV of the treatment group; CRTV: the average RTV of the vehicle control group; RTV=Vt/V0, where V0 is the tumor volume of the animal when grouped, and Vt is the tumor volume of the animal after treatment); • or T/C %=TTW/CTW×100% (TTW: the average tumor weight of the treatment group at the end of the experiment; CTW: the average tumor weight of the vehicle control group at the end of the experiment). • Relative tumor inhibition rate, TGI (%), was calculated according to the formula as follows: TGI %=(1−T/C)×100%. (T and C are the relative tumor volumes (RTV) or tumor weights (TW) of the treatment group and the control group at a specific time point).

Assay [2] relates to LoVo xenograft tumor model. The assay is described as follows: LoVo human colon cancer subcutaneous xenograft tumor model. To be noted: 21st day of administration, azvudine 1 mpk, capecitabine 400 mpk, combination 1 + 400 mpk; for Tumor volume (mm^3): BALB/c nude mice, p.o. QD x 3 weeks. The procedure: Human colon cancer cells LoVo (Cat. No.: ECACC-87060101) were cultured in vitro as a monolayer in F12K medium containing 10% fetal bovine serum, 100 U/mL penicillin and 100 μg/mL streptomycin, in a 37° C. and 5% CO2 incubator. The cells were routinely digested with trypsin-EDTA and passaged twice a week. When the cell saturation reached 80%-90% and the cell number achieved the requirement, the cells were collected, counted and inoculated.
0.1 mL)(10×10^6) of LoVo cells were subcutaneously inoculated on the right back of each mouse. The grouping administration was started when the average tumor volume reached about 147 mm^3.
The tumor volume changes and the tumor weight changes in each group (on the 21st day of administration) after administration of test drugs for treating BALB/c nude mice with Lovo cell subcutaneous xenograft tumor are shown in Table 5 and Table 6 respectively.
On the technique in general: A xenograft is tissue or cells of one species grown in another, often human tumour cells in immunodeficient mice.

Assay [3] relates to Daudi xenograft tumor model. Kind of assay: Human Burkitt's lymphoma cell Daudi subcutaneous xenograft tumor model. The following applies: combination 1 + 50 mg/kg; for Tumor volume (mm^3) on the 27th day: CB 17 SCID mice, QD x 4 weeks, azvudine 1 mg/kg p.o., cyclophosphamide 50 mg/kg i.p. The procedure: Human Burkitt's lymphoma cells Daudi (Cat. No.: DSMZ-ACC129) were in vitro suspended and cultured in RPMI 1640 medium containing 10% fetal bovine serum, 2 mM glutamine, 100 U/mL penicillin and 100 μg/mL streptomycin, in a 37° C. and 5% CO2 incubator. When the cell saturation achieved 80%-90% and the cell number reached the requirement, the cells were collected, counted and inoculated.
0.2 mL (10×10^6) of Daudi cells (added with Matrigel at a volume ratio of 1:1) were subcutaneously inoculated on the right back of each mouse. The grouping administration was started when the average tumor volume reached about 100 mm^3.
The changes of tumor volume and tumor weight in each group after administration of test drugs for treating CB 17 SCID mice with Daudi cell subcutaneous xenograft tumor are shown in Table 8 and Table 9 respectively.

Assay [4] deals with A2058 xenograft tumor model. The assay is described as follows: Human melanoma A2058 cell subcutaneous xenograft tumor model. To be noted: azvudine 1 mg/kg, dacarbazine 60 mg/kg, combination 1 + 60 mg/kg. The procedure: Human melanoma cells A2058 (Cat. No.: CRL-11147) were cultured in vitro as a monolayer in DMEM medium containing 10% fetal bovine serum, 100 U/mL penicillin and 100 μg/mL streptomycin, in a 37° C. and 5% CO2 incubator. The cells were routinely digested with trypsin-EDTA and passaged twice a week. When the cell saturation reached 80%-90% and the cell number achieved the requirement, the cells were collected, counted and inoculated.
0.2 mL (5×10^6) of A2058 cells were added with Matrigel, and the mixture was subcutaneously inoculated on the right back of each mouse. The grouping administration was started when the average tumor volume reached about 136 mm^3.

[5] abbreviates: based on tumor volume, 25th day after inoculation, p.o. QD x 3 weeks, azvudine 1 mpk, capecitabine 400 mpk, combination 1 + 400 mpk.
Setting [6] is: based on tumor weight, azvudine 1 mpk, capecitabine 400 mpk, combination 1 + 400 mpk.
Setting [7] is: based on tumor volume, 27th day, azvudine 1 mg/kg, cyclophosphamide 50 mg/kg.
Where [8] appears, read: based on tumor volume, 14th day.

For the molecule `[N-]=[N+]=N[C@]1(CO)O[C@@H](n2ccc(N)nc2=O)[C@@H](F)[C@@H]1O` [Azvudine, azvudine], the Tumor volume in assay [1] (25th day after inoculation (20th day after grouping), BALB/c nude mice, p.o. QD x 3 weeks, azvudine 1 mpk, capecitabine 400 mpk, combination 1 + 400 mpk) was 985.14 ± 108.58(6). Further, the average tumor volume in assay [1] (25th day after tumor inoculation (20th day after grouping), azvudine 1 mg/kg, capecitabine 400 mg/kg, combination 1 + 400 mg/kg) is 985.14 mm^3. Moreover, the “T/C (%)” value in assay [1] (setting [5]) came to 67.57%; in assay [1] (setting [6]), 28.19%; in assay [2] (based on tumor volume), 62.00%; in assay [2] (based on tumor weight), 66.37%; in assay [3] (setting [7]), 30.64%; in assay [4] (setting [8]) it was 79.67%. Besides, the “TGI (%)” value in assay [1] (setting [5]) turned out to be 32.43%; in assay [2] (based on tumor volume), 43.40%; in assay [3] (setting [7]), 71.09%; in assay [4] (setting [8]) it was 18.22%. In assay [1] (setting [6]), the TGI was 71.81. For the same molecule, in assay [1] (end of experiment, p.o. QD x 3 weeks, azvudine 1 mpk, capecitabine 400 mpk, combination 1 + 400 mpk), the “Tumor weight (mg)” value is listed as 986.10 ± 107.78(6) mg. Besides, the “Tumor volume (mm^3)” value in assay [2] was determined as 902 ± 163 mm^3; in assay [2] (listed as azvudine), 902 mm^3. The “Tumor weight” value in assay [2] worked out at 0.937 ± 0.142 g. Moreover, the “Tumor volume (mm^3) on the 27th day” value was 909 ± 120 mm^3 in assay [3] (27th day of administration) and 909 mm^3 in assay [3] (27th day of administration, listed as azvudine). Besides, in assay [3] (27th day of administration, azvudine 1 mg/kg, cyclophosphamide 50 mg/kg), the “Tumor weight (g) (On the 27th day)” value came out at 0.996 ± 0.143 g. In assay [3] (based on tumor weight, 27th day, azvudine 1 mg/kg, cyclophosphamide 50 mg/kg), the “T/Cweight (%)” value was determined as 33.38%. Also, the “Tumor volume (mm^3) on the 14th day” value in assay [4] (14th day of administration, listed as azvudine) turned out to be 2253 mm^3.
